In test [1] the test system is 3D-reconstructed epidermis. Put plainly: Rebuilding of the epidermis structure in an in vitro skin model, control CaCl2 (hematoxylin-eosin stain). The note with it: 1.1 mM apical, 0.3 mM CaCl2·2H2O basal, 9 days of differentiation; dihydrate. The test is classed as cell-based, human. Here is the method: (§1) The effect of the Ca^2+ phospholipid complexes on the differentiation of 3D-reconstructed epidermis was investigated. To this end, keratinocyte progenitor cells were cultivated in low-calcium growth medium (TAK-GM, 0.03 mM calcium chloride dihydrate (CaCl2·2H2O)) and were then used to reconstruct a 3D epidermis. For this purpose, the medium was replaced by a 3D differentiation medium (TAK-3D) containing 1.1 mM CaCl2·2H2O and the cells were grown in the medium for a further day. The cultures were then contacted with the air in order to induce differentiation and formation of the skin barrier, and grown for a further 9 days with changing of the medium every second day in the following way: • Condition 1: 1.1 mM CaCl2·2H2O from the basal side (TAK-3D). This is the standard condition for efficient epidermis formation. • Condition 2: 0.3 mM CaCl2·2H2O from the basal side (low calcium concentration). The calcium concentration was reduced here in order to cause impaired formation of the epidermis and thus produce an impaired skin barrier. This is the minimum necessary calcium concentration that must be present on the basal side in order to ensure formation of the epidermis. • Condition 3: 0.3 mM CaCl2·2H2O from the basal side+1.1 mM CaCl2·2H2O from the apical side. Here, calcium was additionally added to the 3D epidermis apically in the form of calcium chloride dihydrate. […]

The subject of the next test is loricrin. Put plainly: Loricrin expression stain of 3D epidermis (immunohistochemistry). The test is classed as cell-based, human. Particulars: 1.1 mM apical, 0.3 mM CaCl2·2H2O basal, 9 days of differentiation. How it is done: as §1
The test system of the next test is involucrin. Put plainly: Involucrin expression in skin explants after topical treatment in Franz diffusion cells. The test is classed as cell-based. The note with it: gel containing 0.013% CaCl2·2H2O, topical 24 hours, 20 mg. Here is the method:
The effect of a topical treatment with Ca^2+ phospholipid complex on the expression of the epidermis differentiation marker involucrin was investigated in skin explants. […] Thereafter, the skin explants were washed with 3 ml of water and frozen at −80° C. The tissues were fixed in formaldehyde and embedded in paraffin. Tissue sections of 5 μm were prepared and mounted on glass slides before deparaffination. The slides were stained with hematoxylin-eosin stain to analyze tissue structure. The protein expression of involucrin was determined by immunohistochemical staining and quantified by image analysis.

“Also recorded” adds a separate entry of the source.

Regarding `O.O.[Ca+2].[Cl-].[Cl-]` [CaCl2·2H2O, calcium chloride dihydrate], the “formation of 3D epidermis (hematoxylin-eosin stain)” value in test [1] is listed as “impairment of epidermis formation; also recorded: additionally worsened the formation of a 3D epidermis”. Moreover, the “expression of the epidermal differentiation marker loricrin” value with loricrin is given as “reduced loricrin production”. For the same compound, the “reduction of involucrin expression compared to the placebo-treated skin explant” value in the test on involucrin is listed as 91.1%.

For the origin of these results see US20250025387A1, “COMPOSITION FOR THE TREATMENT OF THE SKIN OF DIABETES PATIENTS” (MIBELLE AG, priority 2021, published 2025).
